Experimental data: patent US11053256B2, “Dihydropyranopyrimidines for the treatment of viral infections” (Janssen Sciences Ireland Unlimited Company, priority 2016, dated 2021)

How the values were obtained:
human TLR7 = target: T1, human TLR7 (Homo sapiens, UniProt Q9NYK1); assay: Human TLR7 cellular reporter assay (HEK293, NFkB-luc); type: cell-based; settings: HEK293 cells transiently transfected with TLR7 and NFkB-luc; 6 hours incubation; lowest effective concentration
T1 construct: expressed in transfected cells; host or cells: HEK293
T1 sequence (Q9NYK1 27-1049): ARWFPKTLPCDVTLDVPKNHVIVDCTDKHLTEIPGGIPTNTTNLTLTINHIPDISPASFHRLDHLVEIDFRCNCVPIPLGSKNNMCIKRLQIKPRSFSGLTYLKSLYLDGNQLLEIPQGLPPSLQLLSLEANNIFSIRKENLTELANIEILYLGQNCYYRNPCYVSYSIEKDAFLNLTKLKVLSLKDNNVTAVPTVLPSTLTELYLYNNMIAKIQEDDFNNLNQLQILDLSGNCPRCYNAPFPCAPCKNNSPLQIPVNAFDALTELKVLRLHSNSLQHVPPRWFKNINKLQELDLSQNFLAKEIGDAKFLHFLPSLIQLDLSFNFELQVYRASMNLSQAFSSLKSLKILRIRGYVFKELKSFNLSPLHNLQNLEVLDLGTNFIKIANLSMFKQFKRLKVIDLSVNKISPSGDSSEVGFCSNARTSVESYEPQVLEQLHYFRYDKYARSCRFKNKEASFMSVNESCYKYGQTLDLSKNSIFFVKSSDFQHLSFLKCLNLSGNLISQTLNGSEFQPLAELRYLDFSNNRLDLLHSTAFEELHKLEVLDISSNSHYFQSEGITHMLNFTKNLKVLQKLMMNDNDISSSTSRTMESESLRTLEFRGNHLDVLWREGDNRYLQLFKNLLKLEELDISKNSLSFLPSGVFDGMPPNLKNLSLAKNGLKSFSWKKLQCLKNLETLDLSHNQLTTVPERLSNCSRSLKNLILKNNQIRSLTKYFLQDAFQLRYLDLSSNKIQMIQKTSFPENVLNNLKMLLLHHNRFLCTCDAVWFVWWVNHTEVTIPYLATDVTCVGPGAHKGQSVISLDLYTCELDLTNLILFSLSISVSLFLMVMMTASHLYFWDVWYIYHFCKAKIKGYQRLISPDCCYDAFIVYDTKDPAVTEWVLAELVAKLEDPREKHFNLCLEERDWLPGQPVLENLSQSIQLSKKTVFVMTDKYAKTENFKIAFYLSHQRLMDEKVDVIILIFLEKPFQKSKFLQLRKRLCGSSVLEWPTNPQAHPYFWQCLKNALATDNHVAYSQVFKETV
Protocol: (§1) Assessment of human TLR7 and human TLR8 activity. The ability of compounds to activate human TLR7 and/or TLR8 was assessed in a cellular reporter assay using HEK293 cells transiently transfected with a TLR7 or TLR8 expression vector and NFkB-luc reporter construct.
(§2) Briefly, HEK293 cells were grown in culture medium (DMEM supplemented with 10% FCS and 2 mM glutamine). For transfection of cells in 15 cm dishes, cells were detached with Trypsin-EDTA, transfected with a mix of CMV-TLR7 or TLR8 plasmid (1700 ng), NFkB-luc plasmid (850 ng) and a transfection reagent and incubated for 48 h at 37° C. in a humidified 5% CO2 atmosphere. Transfected cells were then washed in PBS, detached with Trypsin-EDTA and resuspended in medium to a density of 1.25×10^5 cells/mL. Forty microliters of cells were then dispensed into each well in 384-well plates, where 200 nL of compound in 100% DMSO was already present. Following 6 hours incubation at 37° C., 5% CO2, the luciferase activity was determined by adding 15 μL of Steady Lite Plus substrate (Perkin Elmer) to each well and readout performed on a ViewLux ultraHTS microplate imager (Perkin Elmer). Dose response curves were generated from measurements performed in quadruplicates. Lowest effective concentrations (LEC) values, defined as the concentration that induces an effect which is at least two fold above the standard deviation of the assay, were determined for each compound.

human TLR8 = target: T2, human TLR8 (Homo sapiens, UniProt Q9NR97); assay: Human TLR8 cellular reporter assay (HEK293, NFkB-luc); type: cell-based; settings: HEK293 cells transiently transfected with TLR8 and NFkB-luc; 6 hours incubation; lowest effective concentration
T2 construct: expressed in transfected cells; host or cells: HEK293
T2 sequence (Q9NR97 27-1041): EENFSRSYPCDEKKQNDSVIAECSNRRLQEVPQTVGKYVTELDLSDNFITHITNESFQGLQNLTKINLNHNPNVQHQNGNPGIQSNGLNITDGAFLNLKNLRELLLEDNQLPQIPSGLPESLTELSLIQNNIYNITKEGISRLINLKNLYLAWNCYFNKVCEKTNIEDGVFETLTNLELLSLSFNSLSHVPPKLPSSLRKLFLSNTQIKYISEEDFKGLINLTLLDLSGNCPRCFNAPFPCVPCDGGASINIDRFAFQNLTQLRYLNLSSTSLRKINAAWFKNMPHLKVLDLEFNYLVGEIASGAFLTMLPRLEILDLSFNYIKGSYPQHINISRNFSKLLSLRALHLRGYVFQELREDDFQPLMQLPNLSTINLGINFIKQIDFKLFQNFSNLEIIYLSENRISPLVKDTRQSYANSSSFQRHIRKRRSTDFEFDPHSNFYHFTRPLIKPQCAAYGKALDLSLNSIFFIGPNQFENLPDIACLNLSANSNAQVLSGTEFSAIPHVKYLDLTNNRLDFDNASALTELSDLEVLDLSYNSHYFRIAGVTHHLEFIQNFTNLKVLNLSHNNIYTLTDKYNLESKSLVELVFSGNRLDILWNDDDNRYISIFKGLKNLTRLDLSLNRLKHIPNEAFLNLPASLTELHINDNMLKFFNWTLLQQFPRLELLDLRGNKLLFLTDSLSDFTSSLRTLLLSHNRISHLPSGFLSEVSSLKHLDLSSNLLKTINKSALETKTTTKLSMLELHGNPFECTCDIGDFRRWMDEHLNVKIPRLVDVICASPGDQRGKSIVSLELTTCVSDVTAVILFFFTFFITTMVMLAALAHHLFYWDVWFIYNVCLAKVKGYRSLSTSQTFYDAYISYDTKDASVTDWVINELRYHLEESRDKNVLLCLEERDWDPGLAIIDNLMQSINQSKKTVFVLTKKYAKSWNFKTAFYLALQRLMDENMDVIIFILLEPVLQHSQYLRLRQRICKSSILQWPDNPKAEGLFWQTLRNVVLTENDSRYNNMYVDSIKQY
Protocol: as §1, §2

SMILES | Human TLR 7 (LEC) (human TLR7) [µM] | Human TLR 8 (LEC) (human TLR8) [µM]
CCCCNc1nc(N)nc2c1CCOC2 [Compound 7, N^4-butyl-5,8-dihydro-6H-pyrano[3,4-d]pyrimidine-2,4-diamine] | 4.7 | 0.5
CCCC[C@H](CO)Nc1nc(N)nc2c1COCC2 [Compound 4, (2R)-2-[(2-amino-7,8-dihydro-5H-pyrano[4,3-d]pyrimidin-4-yl)amino]hexan-1-ol] | >100 | 1.3
CCCCNc1nc(N)nc2c1OCCC2 [Compound 13, N^4-butyl-7,8-dihydro-6H-pyrano[3,2-d]pyrimidine-2,4-diamine] | 0.8 | 0.1
CCCCNc1nc(N)nc2c1COCC2 [Compound 3, N^4-butyl-7,8-dihydro-5H-pyrano[4,3-d]pyrimidine-2,4-diamine] | 14.8 | 1.0
CCCC[C@H](CO)Nc1nc(N)nc2c1OCCC2 [Compound 14, (2R)-2-[(2-amino-7,8-dihydro-6H-pyrano[3,2-d]pyrimidin-4-yl)amino]hexan-1-ol] | 32.5 | 0.1
CCCC[C@H](CO)Nc1nc(N)nc2c1CCOC2 [Compound 8, (2R)-2-[(2-amino-5,8-dihydro-6H-pyrano[3,4-d]pyrimidin-4-yl)amino]hexan-1-ol] | >100 | 1.4
